According to patent publication US12169192B2, “Methods of identifying a hydrocarbon fuel” (Afton Chemical Corporation, priority 2020, dated 2024):

Legend:
[1] = Partition of marker compound between water and heptane phases; format: physicochemical; conditions: for Initial Fluorescence Intensity in Water Phase / Fluorescence Intensity in Water Phase After Partition: heptane, excitation 540 nm, emission 590 nm; for Initial Fluorescence Intensity in Water Phase: 10 ppb marker; for Fluorescence Intensity in Water Phase After Partition: not background corrected; for Partition Ratio (Kd): water/heptane, corrected for background
Method: (§1) In this Example, the separation/partition of the marker compound between water and fuel phases was measured. The procedure for this Example included: measure fluorescence of 10 grams of water phase with and without marker compound present to determine background fluorescence. Then, 10 grams of hydrocarbon including 10 ppb of marker compound was added to the water and gently agitated for 1 minute. After mixing, the sample was allowed to completely separate into two phases. Thereafter, the fluorescence of the water phase was re-measured. Since the marker concentration is directly proportional to fluorescence intensity (at 10 ppb and within a range of interest), the Partition Ratio can be calculated from the initial and final tracer fluorescence intensities (corrected for any background fluorescence) from the water phase.
(§2) For this Example, Rhodamine B, Rhodamine 101, and Fluorescein marker compounds were used. For Rhodamine 101 and Rhodamine B measurements, excitation wavelength was 540 nm and emission wavelength was 590 nm. For Fluorescein measurements, excitation wavelength was 470 nm and emission wavelength was 515 nm.

[2] = Partition of marker compound between water and gasoline phases; format: physicochemical; conditions: for Initial Fluorescence Intensity in Water Phase / Fluorescence Intensity in Water Phase After Partition: gasoline, excitation 540 nm, emission 590 nm; for Initial Fluorescence Intensity in Water Phase: 10 ppb marker; for Fluorescence Intensity in Water Phase After Partition: not background corrected; for Partition Ratio (Kd): water/gasoline, corrected for background
Method: as §1, §2

Initial Fluorescence Intensity in Water Phase [1] [arb units] | Fluorescence Intensity in Water Phase After Partition [1] [arb units] | Partition Ratio (Kd) [1] | Initial Fluorescence Intensity in Water Phase [2] [arb units] | Fluorescence Intensity in Water Phase After Partition [2] [arb units] | Partition Ratio (Kd) [2] | SMILES
73 | 20 | 0.35 | 73.5 | 12.5 | 0.20 | O=C([O-])c1ccccc1C1=c2cc3c4c(c2Oc2c1cc1c5c2CCCN5CCC1)CCC[N+]=4CCC3 [Rhodamine 101]
75 | 21.5 | 0.38 | 71.5 | 13 | 0.21 | CCN(CC)c1ccc2c(-c3ccccc3C(=O)O)c3ccc(=[N+](CC)CC)cc-3oc2c1.[Cl-] [Rhodamine B]
